# The source made the active and inactive calls. No cut-off for these calls is given here.
# Key:
# HeLa [1] = assay: Cytotoxicity against human HeLa cells assessed as decrease in cell viability at 0.01 to 10 uM pretreated with 3-MA followed by compound addition by MTT assay; assay type: functional, cell-based; conditions: dose 0.01-10 µM
# [2] = Drug concentration in plasma of C57BL/6 mouse at 5 mg/kg, iv measured after 4 hrs by HPLC/MS/MS analysis; assay type: ADME, organism-based
# HeLa [3] = assay: Induction of beta III-tubulin degradation in human HeLa cells incubated for 48 hrs by immunoblotting analysis; assay type: cell-based; conditions: dose 0.1-1 µM
# [4] = target: T1, Tubulin alpha (Homo sapiens) (UniProt P0DPH7+P68366+Q71U36+P68363+Q9BQE3+Q6PEY2+A6NHL2+Q9NY65); assay: Induction of alpha-tubulin degradation in human HeLa cells incubated for 48 hrs by immunoblotting analysis; assay type: cell-based; conditions: dose 0.1-1 µM
# HeLa [5] = assay: Cytotoxicity against human HeLa cells assessed as decrease in ratio of green to red fluorescence at 0.1 to 1 uM incubated for 24 hrs by calcein-AM/7-AAD staining based analysis; assay type: functional, cell-based; conditions: dose 0.1-1 µM
# HeLa [6] = assay: Effect on p53 pathway in human HeLa cells at 10 uM incubated for 48 hrs by KEGG analysis; assay type: functional, cell-based
# [7] = MRT (0 to infinity) in male CD-1 mouse at 1 mg/kg, iv measured for 0.083 to 48 hrs by HPLC/MS/MS analysis; assay type: ADME, organism-based; conditions: in vivo, time 0.083-48 hrs
# HeLa [8] = assay: Cytotoxicity against human HeLa cells assessed as decrease in cell viability cultured in chloride-containing extracellular medium at 0.05 to 5 uM incubated for 12 hrs; assay type: functional, cell-based; conditions: dose 0.05-5 µM
# Chloride [9] = assay: Binding affinity to chloride anions assessed as chloride efflux in egg-yolk L-alpha-phosphatidylcholine liposome model harboring intravesicular LiCl/extravesicular NaNO3
# Chloride [10] = assay: Binding affinity to chloride anions assessed as chloride efflux in egg-yolk L-alpha-phosphatidylcholine liposome model harboring intravesicular NaCl/extravesicular Na2SO4
# [11] = MRT (0 to t) in male CD-1 mouse at 1 mg/kg, ip measured for 0.083 to 48 hrs by HPLC/MS/MS analysis; assay type: ADME, organism-based; conditions: in vivo, time 0.083-48 hrs
# HeLa [12] = assay: Induction of mitochondrial membrane permeability in human HeLa cells at 0.625 to 5 uM incubated for 24 hrs by JC-1 staining based analysis; assay type: functional, cell-based; conditions: dose 0.625-5 µM
# HeLa [13] = assay: Induction of cell cycle arrest in human HeLa cells assessed as accumulation of cells at S phase at 1 uM incubated for 24 hrs by PI staining based flow cytometry relative to control; assay type: functional
# [14] = AUC (0 to t) in male CD-1 mouse at 1 mg/kg, iv measured for 0.083 to 48 hrs by HPLC/MS/MS analysis; assay type: ADME, organism-based; conditions: in vivo, time 0.083-48 hrs
# Chloride [15] = assay: Binding affinity to chloride anions in human HeLa cells assessed as increase in chloride influx at 1 uM measured after 30 to 60 mins by flow cytometry; assay type: cell-based; conditions: time 30-60 min
# [16] = Toxicity in male Balb/C nude mouse xenografted with human HeLa cells assessed as abnormalities in lung at 10 to 20 mg/kg, ip administered on every 2 days measured after 18 days by H and E staining based analysis; assay type: organism-based; conditions: in vivo, 432 h, dose 10-20 mg/kg, time 18 day
# Chloride [17] = assay: Binding affinity to chloride anions assessed as transport of chloride anions across bulky nitrobenzene membrane in U-shaped tube harboring NaCl in donor phase and NaNO3 in receiving phase at 1 mM measured for 12 hrs by chloride ion selective electrode technique
# HeLa [18] = assay: In vivo induction of ferroptosis in human HeLa cells xenografted in male Balb/C nude mouse assessed as increase in cleaved caspase-3 level administered intraperitoneally on every 2 days measured after 18 days by immunoblotting analysis; assay type: functional, organism-based; conditions: dose 10-20 mg/kg, route ip, time 18.0 day
# HeLa [19] = assay: Induction of mitochondrial membrane permeability in human HeLa cells assessed as green fluorescence at 0.1 uM incubated for 24 hrs by JC-1 staining based analysis (reference value: 1.5 %); assay type: functional
# HeLa [20] = assay: Induction of lipid peroxidation in human HeLa cells by flow cytometry; assay type: functional, cell-based; conditions: dose 0.1-1 µM
# HeLa [21] = assay: Induction of mitochondrial membrane permeability in human HeLa cells assessed as red fluorescence at 0.5 uM incubated for 24 hrs by JC-1 staining based analysis (reference value: 98.5 %); assay type: functional
# [22] = Half life in male CD-1 mouse at 1 mg/kg, iv measured for 0.083 to 48 hrs by HPLC/MS/MS analysis; assay type: ADME, organism-based; conditions: in vivo, time 0.083-48 hrs
# [23] = Toxicity in male Balb/C nude mouse xenografted with human HeLa cells assessed as abnormalities in kidney at 10 to 20 mg/kg, ip administered on every 2 days measured after 18 days by H and E staining based analysis; assay type: organism-based; conditions: in vivo, 432 h, dose 10-20 mg/kg, time 18 day
# HeLa [24] = assay: Antitumor activity against human HeLa cells xenografted in male Balb/C nude mouse assessed as decrease in beta III-tubulin level at 10 to 20 mg/kg, ip administered on every 2 days measured after 18 days by immunoblotting analysis; assay type: functional, organism-based; conditions: dose 10-20 mg/kg, time 18.0 day
# [25] = Tmax in male CD-1 mouse at 1 mg/kg, iv measured for 0.083 to 48 hrs by HPLC/MS/MS analysis; assay type: ADME, organism-based; conditions: in vivo, time 0.083-48 hrs
# Chloride [26] = assay: Binding affinity to chloride anions assessed as chloride efflux in egg-yolk L-alpha-phosphatidylcholine liposome model measured per lipid in presence of intravesicular NaCl/extravesicular NaNO3 by chloride ion selective electrode technique
# [27] = target: T1, Tubulin alpha (Homo sapiens); assay: Induction of alpha-tubulin degradation in human HeLa cells at 1 uM preincubated with MG132 followed by compound addition measured after 24 hrs by immunoblotting analysis; assay type: cell-based
# HeLa [28] = assay: Cytotoxicity against human HeLa cells assessed as decrease in cell viability at 0.01 to 10 uM pretreated with DFO followed by compound addition by MTT assay; assay type: functional, cell-based; conditions: dose 0.01-10 µM
# HeLa [29] = assay: Antitumor activity against human HeLa cells xenografted in male Balb/C nude mouse assessed as cell death at 10 to 20 mg/kg, ip administered on every 2 days measured after 18 days by TUNEL immunofluorescence analysis; assay type: functional, organism-based; conditions: dose 10-20 mg/kg, time 18.0 day
# HeLa [30] = assay: Induction of mitochondrial membrane permeability in human HeLa cells assessed as green fluorescence at 1 uM incubated for 24 hrs by JC-1 staining based analysis (reference value: 1.5 %); assay type: functional
# Chloride [31] = assay: Binding affinity to chloride anions using tetrabutylammonium chloride salt assessed as association constant by 1H NMR spectroscopy
# [32] = target: T2, Tubulin beta (Homo sapiens) (UniProt P68371+Q9H4B7+Q13509+P04350+Q3ZCM7+P07437+Q13885+Q9BVA1+Q9BUF5+A6NNZ2); assay: Induction of beta-tubulin degradation in human HeLa cells incubated for 48 hrs by immunoblotting analysis; assay type: cell-based; conditions: dose 0.1-1 µM
# Chloride [33] = assay: Binding affinity to chloride anions in human HeLa cells assessed as chloride influx up to 5 uM incubated for 2 hrs by MQAE staining based analysis; assay type: cell-based
# [34] = target: T2, Tubulin beta (Homo sapiens); assay: Induction of beta-tubulin degradation in human HeLa cells at 1 uM preincubated with MG132 followed by compound addition measured after 24 hrs by immunoblotting analysis; assay type: cell-based
# Chloride [35] = assay: Binding affinity to chloride anions in human HeLa cells assessed as increase in chloride influx at 1 uM measured after 15 mins by inverted fluorescence microscopy; assay type: cell-based
structure (smiles),measurement,setting,value
Fc1cc(-c2nc3c(C(F)(F)F)cc(C(F)(F)F)cc3[nH]2)cc(-c2nc3c(C(F)(F)F)cc(C(F)(F)F)cc3[nH]2)c1,Activity,HeLa [1],Active
same,concentration at 4 h,[2],99.2 µM
same,Activity,HeLa [3],Dose-dependent-effect
same,Activity,[4],Dose-dependent-effect
same,Activity,HeLa [5],Active
same,Activity,HeLa [6],Active
same,MRT inf,[7],3.14 h
same,Activity,HeLa [8],Active
same,Activity,Chloride [9],Active
same,Activity,Chloride [10],inactive
same,MRT last,[11],24.9 h
same,Activity,HeLa [12],Active
same,Activity,HeLa [13],48%
same,AUC(0-t),[14],17500 ng·h/mL
same,Activity,Chloride [15],Active
same,Activity,[16],Non-toxic
same,Activity,Chloride [17],Active
same,Activity,HeLa [18],Dose-dependent-effect
same,Activity,HeLa [19],9.5%
same,Activity,HeLa [20],Dose-dependent-effect
same,Activity,HeLa [21],55.1%
same,half-life,[22],5.11 h
same,Activity,[23],Non-toxic
same,Activity,HeLa [24],Active
same,Tmax,[25],4.8 min
same,EC50,Chloride [26],0.64 mol%
same,Activity,[27],inactive
same,Activity,HeLa [28],inactive
same,Activity,HeLa [29],Active
same,Activity,HeLa [30],66.8%
same,Ka,Chloride [31],1.48 10^3/M
same,Activity,[32],Dose-dependent-effect
same,Activity,Chloride [33],Active
same,Activity,[34],inactive
same,Activity,Chloride [35],inactive

# — ChEMBL document CHEMBL6178013, “Ferroptosis of Cancer Cells via Tubulin Degradation and Mitochondrial Dysfunction: A Novel Mechanism of Anticancer Effect for Small-Molecule Anion Transporters” (J Med Chem, 2025)
